# Measured values from patent US20260191843A1, “METHODS AND MATERIALS FOR TREATING BURNS” (The Penn State Research Foundation, priority 2022, published 2026).
# “Also recorded” adds a separate entry of the source.
# Columns and labels:
# [1] = test system: deep-partial thickness burn wound on the mouse dorsum; assay: Morphometric burn wound healing assessment at day 26 (H&E and Masson's trichrome staining); format: in vivo, wild-type C57BL/6 mouse
# Protocol: Place the 8-10-week-old wild-type C57BL/6 mouse on its side on a sterile paper sheet. Anesthesia was achieved and maintained with isoflurane utilizing an induced with an intraperitoneal injection of ketamine (60 mg/kg) and xylazine (4 mg/kg). An adequate depth of anesthesia was ensured via lack of a withdrawal reflex when a toe pinch was performed. The depth of anesthesia was monitored as well as respiration and mucous membrane color (pink: normal, pale: blood loss, blue: cyanosis). The surgeon(s) used sterile gloves, mask and a clean lab coat. Sterile surgical instruments (autoclaved) were used during all survival surgeries. The skin was prepared for creation of wound on the dorsal and side skin (from neck to tail) by shaving with a mechanical shaver and then applying a hair removal cream on the skin for 3-5 minutes. Hair was removed completely by gently wiping the skin with cotton balls soaked in warm water. Skin disinfection around the incision site was done using 70% ethanol and betadine for 3 times. Then, the dorsal skin was folded and raised cranially and caudally at the midline using index fingers and thumbs, and the animal was placed in a lateral position. The burn wound was created by contacting a 10 mm diameter brass heating device maintained at 100° C. to the mouse dorsum at a constant pressure. The device remained in contact with the skin for 4 seconds in order to create a deep-partial thickness burn. After burn wound creation, the wound site was photographed, the wound area was circled using permanent pen marker, and the wound surface was covered with a TEGADERM™ (3M) sterile transparent dressing. After surgery, mice were given SR Buprenorphine (0.05 mg/kg) for post-operative analgesia. Then, mice were placed in a clean cage on the heating pad for 30 minutes to help the recovery process. Immediately after the recovery, mice were randomly grouped and treated with either with 4-AP (systemic, ip) or saline (control). […]
# [2] = test system: deep-partial thickness burn wound on the mouse dorsum; assay: Burn wound healing in mice: wound area and percentage of wound closure; format: in vivo, wild-type C57BL/6 mouse
# Protocol: Place the 8-10-week-old wild-type C57BL/6 mouse on its side on a sterile paper sheet. Anesthesia was achieved and maintained with isoflurane utilizing an induced with an intraperitoneal injection of ketamine (60 mg/kg) and xylazine (4 mg/kg). An adequate depth of anesthesia was ensured via lack of a withdrawal reflex when a toe pinch was performed. The depth of anesthesia was monitored as well as respiration and mucous membrane color (pink: normal, pale: blood loss, blue: cyanosis). The surgeon(s) used sterile gloves, mask and a clean lab coat. Sterile surgical instruments (autoclaved) were used during all survival surgeries. The skin was prepared for creation of wound on the dorsal and side skin (from neck to tail) by shaving with a mechanical shaver and then applying a hair removal cream on the skin for 3-5 minutes. Hair was removed completely by gently wiping the skin with cotton balls soaked in warm water. Skin disinfection around the incision site was done using 70% ethanol and betadine for 3 times. Then, the dorsal skin was folded and raised cranially and caudally at the midline using index fingers and thumbs, and the animal was placed in a lateral position. The burn wound was created by contacting a 10 mm diameter brass heating device maintained at 100° C. to the mouse dorsum at a constant pressure. The device remained in contact with the skin for 4 seconds in order to create a deep-partial thickness burn. After burn wound creation, the wound site was photographed, the wound area was circled using permanent pen marker, and the wound surface was covered with a TEGADERM™ (3M) sterile transparent dressing. After surgery, mice were given SR Buprenorphine (0.05 mg/kg) for post-operative analgesia. Then, mice were placed in a clean cage on the heating pad for 30 minutes to help the recovery process. Immediately after the recovery, mice were randomly grouped and treated with either with 4-AP (systemic, ip) or saline (control).
# Functional analysis of the burn wound area was performed by placing a transparent sheet on the surface of the circled wound, and placing a ruler close to the burn wound to capture photographs of individual wounds on 0, 3, 7, 10, 14, 18, 21, and 26 days. The wound size of each individual mice was measured and compared to zero day wound diameter from the circled sheet. The percentage of wound closure was calculated using this formula: (area of original wound-area of the actual burn wound)/area of original burn wound×100.
# [3] = 4-AP treated vs saline-treated mice
smiles,measurement,setting,value
"Nc1ccncc1 [4-AP, 4-aminopyridine]",collagen deposition in the healing wound (Masson's Trichrome),[1]; [3],elevated collagen deposition
same,thickness of newly formed epidermis within the healed wound (H&E),[1]; [3],significantly thicker
same,re-epithelialization,[1]; not completed in saline-treated mice,re-epithelialization was complete
same,acceleration of wound closure,"[2]; by day 3, systemic 4-AP vs saline, P between 0.01 and 0.05",significant increase in wound closure by day 3; also recorded: accelerated wound closure by day 3
same,closed wounds,"[2]; by day 26, systemic 4-AP",closed wounds by day 26
same,reduced wound area (relative to initial wound area),"[2]; day 5, systemic (ip) 4-AP, saline treated animals showed 25% expansion of wound area",5%
same,protection from expansion of wound size (necrosis and apoptosis at zone of stasis),[2]; systemic 4-AP vs saline,significant burn wound protection from expansion of wound; also recorded: significantly prevented expansion of wound size
same,burn wound closure and tissue regeneration as compared to control animals,[2]; systemic 4-AP vs systemic saline,improved burn wound closure and tissue regeneration
